Experiments:
Type in all cases: in vivo, soybean
mutant line W23 = assay: Test B postemergence cross resistance test; conditions: Glycine max, post-emergence; for percent soybean injury at 16 g/ha: W23, 16 g/ha postemergence; for percent soybean injury at 64 g/ha: W23, 64 g/ha postemergence
Description: (§1) In the second postemergence test, six true-breeding resistant mutant lines (W4, W17, W19, W20, W23, and W28) were compared to Williams 82 for cross resistance to a broad range of ALS inhibitors including eight sulfonylureas and three imidazolinones. Two seeds were planted in each 10 cm pot and allowed to grow to the second trifoliolate stage. Pots were not thinned back if both plants were at the proper stage. For each of 11 herbicides, two rates (Table VII) were selected based on previous data: the low rate was expected to cause significant injury (but not death) to Williams 82 and the high rate was expected to severely injure or kill Williams 82. All but a few line x rate treatments were replicated twice.
(§2) In both postemergence tests, plants were returned to the greenhouse after treatment and provided with ample light, moisture, and nutrients to support healthy plant growth. Two to three ratings per pot were recorded over a three-week period and averaged to obtain a single value for each pot For each herbicide, analysis of variance on injury ratings was performed separately. Fisher's least significant difference (LSD) was used to determine the significance of line mean differences at each herbicide rate using the 95% level of confidence. […]

mutant line W4 = assay: Test B postemergence cross resistance test; conditions: Glycine max, post-emergence; for % crop injury at 16 g/ha: W4, 16 g/ha postemergence; for % crop injury at 64 g/ha: W4, 64 g/ha postemergence
Description: as §1, §2

mutant line W17 = assay: Test B postemergence cross resistance test; conditions: Glycine max, post-emergence; for soybean crop injury (%) at 16 g/ha: W17, 16 g/ha postemergence; for soybean crop injury (%) at 64 g/ha: W17, 64 g/ha postemergence
Description: as §1, §2

mutant line W28 = assay: Test B postemergence cross resistance test; conditions: Glycine max, post-emergence; for mean % injury to soybean at 16 g/ha: W28, 16 g/ha postemergence; for mean % injury to soybean at 64 g/ha: W28, 64 g/ha postemergence
Description: as §1, §2

mutant line W19 = assay: Test B postemergence cross resistance test; conditions: Glycine max, post-emergence; for percent soybean crop injury at 16 g/ha: W19, 16 g/ha postemergence; for percent soybean crop injury at 64 g/ha: W19, 64 g/ha postemergence
Description: as §1, §2

Williams 82 [1] = assay: Test B postemergence cross resistance test; conditions: Glycine max, post-emergence
Description: as §1, §2

mutant W19 = assay: Test A postemergence herbicide spray, greenhouse pots
Description: (§3) In the first post-emergence test, two true-breeding resistant mutant lines, W19 and W20, were compared to previously isolated tolerant mutants and wild-type Williams 82. Eighteen pots (20 cm diameter) of each soybean line (2 seeds per pot) were planted using a standard sterile potting mix. When the seedlings reached the second trifoliolate stage, plants were thinned back to one plant per pot. Each pot was then sprayed with a specific herbicide treatment using a conveyor belt spray apparatus to emulate field application. The nine different herbicide treatments included one rate (8 g/ha) of Compound 1 and two rates (8 and 32 g/ha) each of four other sulfonylurea herbicides (Compounds 2,3,7 and 8) (see Table VI) using a factorial treatment design with 2 replications.
as §2

Mutant 1-184A = assay: as above
Description: as §3, §2

mutant W20 [2] = assay: as above
Description: as §3, §2

Williams 82 [3] = assay: as above
Description: as §3, §2

mutant line W20 = assay: Test B postemergence cross resistance test; conditions: Glycine max, post-emergence; for percent crop injury at 16 g/ha: W20, 16 g/ha postemergence; for percent crop injury at 64 g/ha: W20, 64 g/ha postemergence
Description: as §1
In both postemergence tests, plants were returned to the greenhouse after treatment and provided with ample light, moisture, and nutrients to support healthy plant growth. Two to three ratings per pot were recorded over a three-week period and averaged to obtain a single value for each pot For each herbicide, analysis of variance on injury ratings was performed separately. Fisher's least significant difference (LSD) was used to determine the significance of line mean differences at each herbicide rate using the 95% level of confidence.

Williams 82 [4] = assay: Test C preemergence (soil) sulfonylurea application; conditions: 19 days after treatment
Description: (§4) W20, a line homozygous for a dominant sulfonylurea-resistance mutation, was compared to Williams 82 in terms of response to preemergence application of three sulfonylurea herbicides. The experimental unit consisted of a single 18 cm pot filled with soil (Sassafras loamy sand with 0.8% organic matter and pH 6.7) in which 6 seeds of a given soybean line were planted 2 cm deep. After planting, each pot was sprayed (using a conveyor belt spray apparatus to emulate field application) with one of 22 different treatments including a check sprayed with AGWT (90% acetone, 4% glycerol, 4% water, 2% Tween-20), and 21 different herbicide treatments using AGWT as a carrier. The herbicide treatments included 7 different concentrations (Table IX) each of three sulfonyl-ureas: Compound 5, Compound 4, and Compound 1. Each herbicide x line treatment was replicated three times. After herbicide treatment, pots were transferred to a greenhouse and arranged in a randomized complete block design. Nineteen days after treatment, each pot was rated visually for herbicide injury using the scale described previously. For each herbicide, analysis of variance on injury ratings was performed separately. Fisher's least significant difference (LSD) was used to determine the significance of line mean differences at each rate using the 95% level of confidence.

W20 = assay: as above; conditions: 19 days after treatment
Description: as §4

mutant W20 [5] = assay: Postemergence herbicide spray test of W4-4 (Table VII-A); conditions: two weeks after treatment
Experimental: (§5) To investigate this hypothesis, a postemergence herbicide spray test was conducted to compare the reaction of W4-4 to both W20 and wild-type Williams. The applicant was particularly interested in the resistance of W4-4 to herbicide treatments that were injurious to both Williams and W20 in a previous test (Table VII). […] Twenty-four plants each of W4-4, W20, and Williams were planted in separate 10 cm pots and allowed to grow to the second trifoliolate stage. Each pot constituted a single experimental unit receiving a single herbicide treatment. Herbicide treatments (Table VIIA) were applied as described for the first postemergence test and were replicated twice. Control plants were sprayed with the spray carrier solution only (water with 0.25% X77 surfactant). At two weeks after treatment, each plant was rated for % herbicide injury as described in Table VIII. Analysis of variance on injury ratings was performed separately for each herbicide to calculate treatment means and standard errors. Fisher's least significant difference (LSD) was used to determine the significance of line means differences at each herbicide rate using the 95% level of confidence. […]

Mutant W4-4 = assay: as above; conditions: two weeks after treatment
Experimental: as §5

Williams 82 [6] = assay: as above; conditions: two weeks after treatment
Experimental: as §5

SMILES	percent soybean injury at 16 g/ha (mutant line W23) [%]	percent soybean injury at 64 g/ha (mutant line W23) [%]	% crop injury at 16 g/ha (mutant line W4) [%]	% crop injury at 64 g/ha (mutant line W4) [%]	soybean crop injury (%) at 16 g/ha (mutant line W17) [%]	soybean crop injury (%) at 64 g/ha (mutant line W17) [%]	mean % injury to soybean at 16 g/ha (mutant line W28) [%]	mean % injury to soybean at 64 g/ha (mutant line W28) [%]	percent soybean crop injury at 16 g/ha (mutant line W19) [%]	percent soybean crop injury at 64 g/ha (mutant line W19) [%]	percent crop injury at 16 g/ha (mutant line W20) [%]	percent crop injury at 64 g/ha (mutant line W20) [%]	% Injury (Williams 82 [4]; WM 82, 1 g/ha preemergence) [%]	% Injury (Williams 82 [4]; WM 82, 3 g/ha preemergence) [%]	% Injury (Williams 82 [4]; WM 82, 10 g/ha preemergence) [%]	% Injury (Williams 82 [4]; WM 82, 30 g/ha preemergence) [%]	% Injury (Williams 82 [4]; WM 82, 100 g/ha preemergence) [%]	% Injury (Williams 82 [4]; WM 82, 300 g/ha preemergence) [%]	% Injury (W20; W20, 1 g/ha preemergence) [%]	% Injury (W20; W20, 3 g/ha preemergence) [%]	further results
COC(=O)c1sccc1S(=O)(=O)NC(=O)Nc1nc(C)nc(OC)n1 [Compound 2, Methyl 3-[[[[(4-methoxy-6-methyl-1,3,5-triazine-2-yl)amino]carbonyl]amino]sulfonyl]-2-thiophenecarboxylate]	0	8	0	5	0	3	0	5	0	6	5	5	–	–	–	–	–	–	–	–	soybean crop injury at 16 g/ha (Williams 82 [1]; Wm 82, 16 g/ha postemergence): 70%; soybean crop injury at 64 g/ha (Williams 82 [1]; Wm 82, 64 g/ha postemergence): 91%; mean % injury (mutant W19; W19, 8 g/ha postemergence): 0%; mean % injury (mutant W19; W19, 32 g/ha postemergence): 7%; mean % injury (Mutant 1-184A; 8 g/ha postemergence): 13%; mean % injury (Mutant 1-184A; 32 g/ha postemergence): 58%; mean % injury (mutant W20 [2]; W20, 8 g/ha postemergence): 0%; mean % injury (mutant W20 [2]; W20, 32 g/ha postemergence): 6%; mean % injury (Williams 82 [3]; WM 82, 8 g/ha postemergence): 13%; mean % injury (Williams 82 [3]; WM 82, 32 g/ha postemergence): 63%
COC(=O)c1ccccc1S(=O)(=O)NC(=O)Nc1nc(C)cc(C)n1 [Compound 4, Methyl 2-[[[[(4,6-dimethyl-2-pyrimidinyl)amino]carbonyl]amino]sulfonyl]benzoate]	–	–	–	–	–	–	–	–	–	–	–	–	55	88	97	98	100	100	0	0	percent soybean injury at 0.5 g/ha (mutant line W23; W23, 0.5 g/ha postemergence): 8%; percent soybean injury at 2 g/ha (mutant line W23; W23, 2 g/ha postemergence): 11%; % crop injury at 0.5 g/ha (mutant line W4; W4, 0.5 g/ha postemergence): 10%; % crop injury at 2 g/ha (mutant line W4; W4, 2 g/ha postemergence): 8%; soybean crop injury (%) at 0.5 g/ha (mutant line W17; W17, 0.5 g/ha postemergence): 3%; soybean crop injury (%) at 2 g/ha (mutant line W17; W17, 2 g/ha postemergence): 0%; mean % injury to soybean at 0.5 g/ha (mutant line W28; W28, 0.5 g/ha postemergence): 0%; mean % injury to soybean at 2 g/ha (mutant line W28; W28, 2 g/ha postemergence): 18%; percent soybean crop injury at 0.5 g/ha (mutant line W19; W19, 0.5 g/ha postemergence): 3%; percent soybean crop injury at 2 g/ha (mutant line W19; W19, 2 g/ha postemergence): 18%; pest or weed control at 0.5 g/ha (Williams 82 [1]; read-out: mean % injury): 58%; pest or weed control at 2 g/ha (Williams 82 [1]; read-out: mean % injury): 95%; % Injury (Williams 82 [4]; WM 82, 0.3 g/ha preemergence): 33%; % Injury (W20; W20, 0.3 g/ha preemergence): 0%; % Injury (W20; W20, 10 g/ha preemergence): 17%; % Injury (W20; W20, 30 g/ha preemergence): 68%; % Injury (W20; W20, 100 g/ha preemergence): 90%; % Injury (W20; W20, 300 g/ha preemergence): 95%; percent crop injury at 0.5 g/ha (mutant line W20; W20, 0.5 g/ha postemergence): 0%; percent crop injury at 2 g/ha (mutant line W20; W20, 2 g/ha postemergence): 6%
CCOC(=O)c1ccccc1S(=O)(=O)NC(=O)Nc1nc(Cl)cc(OC)n1 [Compound 5, Ethyl 2[[[[(4-chloro-6-methoxy-2-pyrimidinyl)amino]carbonyl]amino]sulfonyl]benzoate]	0	10	6	0	0	0	0	0	0	20	0	0	0	0	0	15	47	68	0	0	pest or weed control at 16 g/ha (Williams 82 [1]; read-out: mean % injury): 40%; pest or weed control at 64 g/ha (Williams 82 [1]; read-out: mean % injury): 58%; % Injury (Williams 82 [4]; WM 82, 1000 g/ha preemergence): 92%; % Injury (W20; W20, 10 g/ha preemergence): 0%; % Injury (W20; W20, 30 g/ha preemergence): 3%; % Injury (W20; W20, 100 g/ha preemergence): 10%; % Injury (W20; W20, 300 g/ha preemergence): 15%; % Injury (W20; W20, 1000 g/ha preemergence): 35%
COc1cc(OC)nc(NC(=O)NS(=O)(=O)c2ncccc2C(=O)N(C)C)n1 [Compound 6, 2-[[[[(4,6-dimethoxy-2-pyrimidinyl)amino]carbonyl]amino]sulfonyl]N,N-dimethyl-3-pyridinecarboxamide]	5	54	4	43	0	40	0	45	8	48	3	38	–	–	–	–	–	–	–	–	pest or weed control at 16 g/ha (Williams 82 [1]; read-out: mean % injury): 25%; pest or weed control at 64 g/ha (Williams 82 [1]; read-out: mean % injury): 66%; mean % injury (mutant W20 [5]; W20, 64 g/ha postemergence): 10%; mean % injury (mutant W20 [5]; W20, 125 g/ha postemergence): 28%; mean % injury (Mutant W4-4; W4-4, 64 g/ha postemergence): 0%; mean % injury (Mutant W4-4; W4-4, 125 g/ha postemergence): 8%; mean % injury (Williams 82 [6]; WM82, 64 g/ha postemergence): 60%; mean % injury (Williams 82 [6]; WM82, 125 g/ha postemergence): 68%

From patent US5084082A, “Soybean plants with dominant selectable trait for herbicide resistance” (priority 1990, dated 1992)
